Measurements from ChEMBL document CHEMBL4145467, “Glycogen synthase kinase-3 and its inhibitors: Potential target for various therapeutic conditions” (Eur J Med Chem, 2018).

Tests used:
[1] = organism: Homo sapiens; experiment: Selectivity ratio of IC50 for PKCbeta2 (unknown origin) to IC50 for GSK3-beta (unknown origin)
[2] = Inhibition of GSK-3beta (unknown origin)
[3] = Inhibition of recombinant rabbit GSK-3beta assessed as decrease in PPI-2 phosphorylation in presence of 33P-ATP after 90 mins by topcount scintillation counting; parameters: species or system Oryctolagus cuniculus
[4] = tested on: MCF7; experiment: Cytotoxicity against human MCF7 cells assessed as reduction in cell viability after 68 hrs by MTT assay; type: functional, cell-based; settings: MCF7, 68 h
[5] = molecular target: T1, Glycogen synthase kinase-3 alpha (Homo sapiens, UniProt P49840); experiment: Inhibition of human GSK3alpha
[6] = Oral bioavailability in Zucker fa/fa rat at 10 mg/kg; type: ADME, organism-based; settings: in vivo
[7] = molecular target: T2, Glycogen synthase kinase-3 beta (Homo sapiens, UniProt P49841); experiment: Inhibition of recombinant GSK3-beta (unknown origin) assessed as decrease in phosphorylation of CREB at serine-129 in presence of ATP[gamma-33P] by filter binding assay
Target sequence in this assay (P49841 whole entry): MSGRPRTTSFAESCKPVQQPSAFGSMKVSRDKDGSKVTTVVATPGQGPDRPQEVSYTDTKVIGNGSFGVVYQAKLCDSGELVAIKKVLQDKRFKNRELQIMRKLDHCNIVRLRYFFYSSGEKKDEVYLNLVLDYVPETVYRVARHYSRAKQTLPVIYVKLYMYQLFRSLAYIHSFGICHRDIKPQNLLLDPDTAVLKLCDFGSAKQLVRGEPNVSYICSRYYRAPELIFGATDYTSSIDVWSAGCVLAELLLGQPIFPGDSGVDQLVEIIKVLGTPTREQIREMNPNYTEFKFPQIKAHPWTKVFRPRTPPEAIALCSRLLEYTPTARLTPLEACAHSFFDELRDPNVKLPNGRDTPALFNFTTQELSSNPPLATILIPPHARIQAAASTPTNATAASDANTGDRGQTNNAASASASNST

[8] = molecular target: T1, Glycogen synthase kinase-3 alpha; experiment: Inhibition of human GSK3alpha using biotin-Ahx-AAAKRREILSRRP-S(PO3)YR-amide as substrate after 40 mins in presence of [33gammaP]-ATP by SPA
[9] = tested on: HT-29; experiment: Cytotoxicity against human HT-29 cells at 20 uM after 2 days by MTT assay relative to control; type: functional
[10] = molecular target: T2, Glycogen synthase kinase-3 beta; experiment: Inhibition of GSK3beta (unknown origin) at 20 uM using FITC-RRRRAAEELDSRAGS(PO4)PQL as substrate after 10 mins by capillary electrophoresis relative to control
Target sequence in this assay (P49841 whole entry, looked up): as the sequence (P49841 whole entry) above

[11] = molecular target: T2, Glycogen synthase kinase-3 beta; experiment: Inhibition of human GSK3beta using YRRAAVPPSPSLSRHSSPHQS(PO4)EDEEE-NH2 as substrate after 60 mins in presence of [33gammaP]-ATP by topcount method
Target sequence in this assay (P49841 whole entry): as the sequence (P49841 whole entry) above

[12] = molecular target: Glycogen synthase kinase 3 beta (Sus scrofa, UniProt B2LUN4); experiment: Inhibition of pig brain GSK3beta using GS1 as substrate after 30 mins
Sequence of Glycogen synthase kinase 3 beta (B2LUN4 whole entry): as the sequence (P49841 whole entry) above, with V40M, T59A, T392S, A400T, T402A, A411T counted along it

T1 sequence (P49840 whole entry): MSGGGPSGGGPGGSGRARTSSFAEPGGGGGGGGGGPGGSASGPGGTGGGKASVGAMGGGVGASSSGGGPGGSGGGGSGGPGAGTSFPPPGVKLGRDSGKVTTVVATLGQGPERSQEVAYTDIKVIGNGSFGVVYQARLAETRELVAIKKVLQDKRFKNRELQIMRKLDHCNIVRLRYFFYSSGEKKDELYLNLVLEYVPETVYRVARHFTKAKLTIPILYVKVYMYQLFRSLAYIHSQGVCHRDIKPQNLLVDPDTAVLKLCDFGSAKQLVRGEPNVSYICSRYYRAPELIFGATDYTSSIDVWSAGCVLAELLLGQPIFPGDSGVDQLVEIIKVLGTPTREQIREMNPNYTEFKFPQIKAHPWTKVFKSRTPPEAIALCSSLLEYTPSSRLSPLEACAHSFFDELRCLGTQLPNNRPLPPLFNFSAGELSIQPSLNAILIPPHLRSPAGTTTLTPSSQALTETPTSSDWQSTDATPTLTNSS

COc1ccccc1C1=C(c2cn(CCCNC(=O)OC(C)(C)C)c3ncccc23)C(=O)NC1=O
Ratio IC50 [1]: 325 | IC50 [2]: 7 nM

O=C1NC(=O)C2=C1c1cn(c3ncccc13)CCCCC(O)CCCCn1cc2c2cccnc21
IC50 [3]: 11 nM

Oc1ccc2c(c1)OC[C@]1(O)Cc3cc(O)c(O)cc3[C@H]21 [BRAZILIN]
IC50 [4]: 7230 nM

O=C1NC(=O)C(c2cn(CCCO)c3ncccc23)=C1c1ncc(C(F)(F)F)cc1Cl
Ratio IC50 [1]: > 385 | IC50 [2]: 26 nM

O=C1NC(=O)C(c2cn(CCCO)c3ncccc23)=C1c1cnccn1
IC50 [3]: 25 nM

CCCCC(=O)Nc1n[nH]c2nnc(-c3ccccc3)cc12
IC50 [5]: 4 nM

O=CN1Cc2cc(F)cc3c(C4=C(c5cnc6ccccn56)C(=O)NC4=O)cn(c23)CC1N1CCCCC1 (configuration not stated)
bioavailability [6]: 23% | IC50 [7]: 1.1 nM

O=C1NC(=O)C2=C1c1cn(c3ncccc13)CCOCCOCCOCCn1cc2c2cccnc21
IC50 [3]: 17 nM

Cc1ccc2ncc(C3=C(c4cn5c6c(cccc46)CN(C=O)C(N4CCCCC4)C5)C(=O)NC3=O)n2c1 (configuration not stated)
bioavailability [6]: 45% | IC50 [7]: 5.2 nM

O=CN1Cc2cccc3c(C4=C(c5cnc6ccccn56)C(=O)NC4=O)cn(c23)CC1N1CCCCC1 (configuration not stated)
IC50 [7]: 2 nM

Fc1ccc(/C=N/Nc2ncnc3c2cnn3-c2ccccc2)cc1
IC50 [8]: 6.2 nM

CC(C)OC1Cn2cc(C3=C(c4cnc5ccccn45)C(=O)NC3=O)c3cccc(c32)CN1C=O (configuration not stated)
IC50 [7]: 1.3 nM

O=C1Nc2ccccc2C1=Cc1cc(CN2CCN(c3ccccc3Cl)CC2)on1
Activity [9]: 78% | inhibition [10]: 72%

CN(C)C1Cn2cc(C3=C(c4cnc5ccccn45)C(=O)NC3=O)c3cccc(c32)CN1C=O (configuration not stated)
IC50 [7]: 1.6 nM

O=CN1Cc2cccc3c(C4=C(c5cnc6ccccn56)C(=O)NC4=O)cn(c23)CC1N1CCOCC1 (configuration not stated)
IC50 [7]: 1.3 nM

CCNC(=O)c1nnn(-c2nonc2N)c1CN1CCCCC1
IC50 [11]: 280 nM

CCOC(=O)c1c2[nH]c3ccccc3c2c(-c2ccc(NC(=O)CCN(C)C)cc2)c2c(=O)[nH][s+]([O-])c12 (configuration not stated)
IC50 [12]: 2800 nM
